We go through 41 compounds from ChEMBL document CHEMBL1914432, “Discovery of highly potent small molecule Hepatitis C Virus entry inhibitors” (Bioorg Med Chem Lett, 2011).

One data set deals with Hepatitis C virus. The data set is described as follows: Antiviral activity against chronic Hepatitis C virus type 2a infected in human HuH7 cells by Renilla luciferase reporter gene assay. The data set is classed as functional, organism-based, Hepacivirus hominis. The conditions noted are these: genotype 2a, Huh-7. (A reporter such as luciferase makes a cellular process visible.)

Data set [1] deals with T1, Scavenger receptor class B member 1 (Homo sapiens) (UniProt Q8WTV0).
T1 sequence (whole entry): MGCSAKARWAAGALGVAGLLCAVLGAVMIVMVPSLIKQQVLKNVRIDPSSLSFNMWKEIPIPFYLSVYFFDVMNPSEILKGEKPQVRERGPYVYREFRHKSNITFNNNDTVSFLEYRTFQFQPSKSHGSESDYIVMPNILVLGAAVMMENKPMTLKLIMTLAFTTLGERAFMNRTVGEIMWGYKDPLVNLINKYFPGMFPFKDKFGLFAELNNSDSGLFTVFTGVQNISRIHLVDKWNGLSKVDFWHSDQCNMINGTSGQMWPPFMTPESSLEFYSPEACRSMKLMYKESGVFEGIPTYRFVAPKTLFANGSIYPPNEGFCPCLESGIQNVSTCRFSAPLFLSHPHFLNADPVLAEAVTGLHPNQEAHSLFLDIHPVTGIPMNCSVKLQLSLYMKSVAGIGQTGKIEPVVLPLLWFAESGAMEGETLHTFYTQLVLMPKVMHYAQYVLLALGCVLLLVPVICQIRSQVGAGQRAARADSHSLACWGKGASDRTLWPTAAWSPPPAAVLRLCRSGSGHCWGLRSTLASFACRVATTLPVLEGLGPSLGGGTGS
As to the kind of experiment: Inhibition of human SRB1-mediated Hepatitis C virus genotype 2a entry into human 293T cells by immunoblotting. The data set is classed as cell-based.

The nature of data set [2]: AUC (all) in rat at 2 mg/kg, iv and 20 mg/kg, po. The data set is classed as ADME, organism-based. Particulars: plasma.
Data set [3] in a line: Cmax in rat at 2 mg/kg, iv and 20 mg/kg, po. The conditions noted are these: in vivo. The data set is classed as ADME, organism-based.
Data set [4] is described as follows: Half life in rat at 2 mg/kg, iv and 20 mg/kg, po. The data set is classed as ADME, organism-based. The conditions noted are these: in vivo.
Data set [5] can be described thus: Apparent volume of distribution in rat at 2 mg/kg, iv and 20 mg/kg, po. The conditions noted are these: in vivo, read-out: Vz. The data set is classed as ADME, organism-based.
A short description of data set [6]: Clearance in rat at 2 mg/kg, iv and 20 mg/kg, po. The conditions noted are these: in vivo. The data set is classed as ADME, organism-based.
Data set [7] can be described thus: Oral bioavailability in rat at 20 mg/kg. The data set is classed as ADME, organism-based. Particulars: in vivo.
Data set [8] has as its system Plasma. As to the kind of experiment: Metabolic stability in rat plasma. The data set is classed as ADME, cell-free.
The subject of data set [9] is Plasma. As to the kind of experiment: Drug metabolism in rat plasma assessed as plasma esterase-mediated formation of 9-(3-(4,6-dimethoxypyrimidin-2-ylamino)propyl-2,3,4,9-tetrahydro-1H-carbazole-6-carboxylic acid by LC-MS analysis. The data set is classed as ADME, cell-free.

Active and inactive are the calls of the source. No cut-off for these calls is given here. Bounds are passed on as bounds.

As usually defined, the IC50 is the midpoint of a concentration-inhibition curve. `COC(=O)c1ccc2c(c1)c1c(n2CCCN2CCOCC2)CCCC1`: the IC50 in the data set on Hepatitis C virus was 150 nM. For the compound `COC(=O)c1ccc2c(c1)c1c(n2CCCn2cncc2C)CCCC1`, in the data set with Hepatitis C virus, the IC50 worked out at 310 nM. Against the preceding compound, the IC50 is about 2.1-fold higher. The AUC is concentration integrated over time. The low end stands for less exposure, the high end for more exposure. As a reminder, the Cmax is the maximum level reached in the sampled fluid or tissue. As a reminder, the half-life is the time in which the quantity being followed falls by half. A higher half-life goes with slow decline. As usually defined, the bioavailability is the share of a dose that reaches the circulation, judged against a reference dose that is usually intravenous. Read a high bioavailability as good availability. Regarding `CNC(=O)c1ccc2c(c1)c1c(n2CCCNc2nc(OC)cc(OC)n2)CCCC1`, the inhibition entry in [1] is “Active”. Also, the IC50 in the data set with Hepatitis C virus was 10 nM. In data set [2], the AUC came out at 45 ng·h/mL. In [3], this compound yielded a Cmax of 51 ng/mL. In [4], the half-life is 28.2 min. Besides, the Vd in data set [5] turned out to be 1.33 L/kg. Moreover, the clearance in data set [6] was 58.2 mL/min/kg. The same compound gave a bioavailability in [7] of 0.8%. For the same compound, the Stability result in the data set with Plasma [8] is listed as “Stable”.

The compound `COC(=O)c1ccc2c(c1)c1c(n2CCCN2C[C@@H](C)O[C@@H](C)C2)CCCC1` came in with an IC50 in the data set on Hepatitis C virus of 25 nM.

`COC(=O)c1ccc2c(c1)c1c(n2CCCOc2cc(Cl)nc(C)n2)CCCC1`: 1.5 nM corresponded to half-maximal inhibition in the data set on Hepatitis C virus (IC50). With `COC(=O)c1ccc2c(c1)c1c(n2CCCNc2nccc(OC)n2)CCCC1`, in the data set with Hepatitis C virus, the half-inhibitory concentration (IC50) is 15 nM. In turn, `COC(=O)c1ccc2c(c1)c1c(n2CCCNc2ncccn2)CCCC1` came in with an IC50 in the data set on Hepatitis C virus of 50 nM. In the data set with Hepatitis C virus, `COc1cc(OC)nc(NCCCn2c3c(c4cc(C(=O)NC(C)C)ccc42)CCCC3)n1` yielded an IC50 of 150 nM. For the same compound, in the data set on Plasma [8], the Stability entry is “Stable”.

Turning to `COC(=O)c1ccc2c(c1)c1c(n2CCCNc2cc(C)nc(Cl)n2)CCCC1`, the IC50 in the data set with Hepatitis C virus was 30 nM. Compound `COC(=O)c1ccc2c(c1)c1c(n2CCCS(=O)(=O)N2CCC2)CCCC1` returned an IC50 with Hepatitis C virus of 15 nM. On to `COC(=O)c1ccc2c(c1)c1c(n2CCCS(=O)(=O)N2CCOCC2)CCCC1`, for which, in the data set on Hepatitis C virus, the IC50 was found to be 15 nM.

In the data set with Hepatitis C virus, `COC(=O)c1ccc2c(c1)c1c(n2CCCC(=O)N(C)C)CCCC1` displayed an IC50 of 300 nM.

`COC(=O)c1ccc2c(c1)c1c(n2CCCn2cnc3ncncc32)CCCC1` came in with an IC50 in the data set on Hepatitis C virus of 50 nM. On the same count and under the same terms, next, `COC(=O)c1ccc2c(c1)c1c(n2CCS(=O)(=O)N(C)C)CCCC1`: > 1000 nM. With `COC(=O)c1ccc2c(c1)c1c(n2CCCN2CCNC(=O)C2)CCCC1`, in the data set on Hepatitis C virus, inhibition was half-maximal at 65 nM (IC50). Regarding `COC(=O)c1ccc2c(c1)c1c(n2CCCCNc2nc(OC)cc(OC)n2)CCCC1`, the midpoint of inhibition in the data set with Hepatitis C virus, the IC50, lay at 30 nM. Against the preceding compound, the IC50 is about 2.2-fold lower. The compound `COC(=O)c1ccc2c(c1)c1c(n2CCCNc2nc(C)cc(C(=O)OC)n2)CCCC1` yielded an IC50 in the data set on Hepatitis C virus of 30 nM. In the data set on Hepatitis C virus, `COC(=O)c1ccc2c(c1)c1c(n2CCCN2CCCC(C(=O)N(C)C)C2)CCCC1` (stereo not given) returned an IC50 of 50 nM.

Turning to `COc1cc(OC)nc(NCCCn2c3c(c4cc(C(=O)N(C)C)ccc42)CCCC3)n1`, the inhibition entry in [1] is “Active”. In the data set on Hepatitis C virus, this compound came in with a half-inhibitory concentration (IC50) of 30 nM. For the same compound, in [2], the AUC stood at 41 ng·h/mL. In data set [3], this compound returned a Cmax of 51 ng/mL. This compound gave a half-life in data set [4] of 33 min. Further, the Vd in data set [5] was 2.05 L/kg. The same compound showed a clearance in data set [6] of 45 mL/min/kg. This compound also had a bioavailability in data set [7] of 0.6%. Further, in the data set on Plasma [8], the Stability result is reported as “Stable”. Take `COC(=O)c1ccc2c(c1)c1c(n2CCCN(C)c2nc(OC)cc(OC)n2)CCCC1`: the IC50 in the data set with Hepatitis C virus came to 1.5 nM. Consider `COC(=O)c1ccc2c(c1)c1c(n2CCc2nc3cc(C)c(C)cc3[nH]2)CCCC1`, for which the IC50 in the data set with Hepatitis C virus worked out at 5 nM.

Regarding `COC(=O)c1ccc2c(c1)c1c(n2CCCNS(=O)(=O)c2cc(F)cc(F)c2)CCCC1`, the IC50 with Hepatitis C virus came out at 15 nM. As to `COC(=O)c1ccc2c(c1)c1c(n2CCCn2ccnc2)CCCC1`, in the data set with Hepatitis C virus, the IC50 is 170 nM. `COC(=O)c1ccc2c(c1)c1c(n2CCCS(=O)(=O)N(C)C)CCCC1` registered an IC50 in the data set with Hepatitis C virus of 5 nM. In the data set on Hepatitis C virus, `COC(=O)c1ccc2c(c1)c1c(n2CCCNc2nc(OC)nc(OC)n2)CCCC1` registered an IC50 of 15 nM. `COC(=O)c1ccc2c(c1)c1c(n2CCCS(=O)(=O)N2CCCCC2)CCCC1` yielded an IC50 in the data set with Hepatitis C virus of 30 nM. `COC(=O)c1ccc2c(c1)c1c(n2C2CCN(c3nc(OC)cc(OC)n3)CC2)CCCC1` yielded an IC50 with Hepatitis C virus of 300 nM. `COC(=O)c1ccc2c(c1)c1c(n2CC2CCCN(c3nc(OC)cc(OC)n3)C2)CCCC1` (stereo not given) had an IC50 in the data set with Hepatitis C virus of 50 nM. `COC(=O)c1ccc2c(c1)c1c(n2CC2CCN(c3nc(OC)cc(OC)n3)CC2)CCCC1` had an IC50 in the data set on Hepatitis C virus of 15 nM. In turn, `COC(=O)c1ccc2c(c1)c1c(n2CCCS(=O)(=O)N2C[C@@H](C)O[C@@H](C)C2)CCCC1` registered an IC50 in the data set on Hepatitis C virus of 150 nM.

For `COc1cc(OC)nc(NCCCn2c3c(c4cc(C(=O)O)ccc42)CCCC3)n1`, the inhibition entry in [1] was “inactive”. In addition, in the data set with Hepatitis C virus (Hepacivirus hominis), the outcome was inactive.

For the compound `COC(=O)c1ccc2c(c1)c1c(n2CCCN2C[C@@H](C)N[C@@H](C)C2)CCCC1`, the midpoint of inhibition with Hepatitis C virus, the IC50, lay at 40 nM. The compound `COC(=O)c1ccc2c(c1)c1c(n2CCCOc2nc(C)cc(C(F)(F)F)n2)CCCC1` returned an IC50 in the data set on Hepatitis C virus of 5 nM. `COC(=O)c1ccc2c(c1)c1c(n2CCCOc2nc(OC)cc(OC)n2)CCCC1` had an IC50 in the data set with Hepatitis C virus of 0.6 nM.

As for `COC(=O)c1ccc2c(c1)c1c(n2CCc2nc3ccccc3[nH]2)CCCC1`, it took 5 nM to reach half-maximal inhibition in the data set on Hepatitis C virus (IC50). Against the preceding compound, the IC50 is about 8.3-fold higher.

Compound `CCN(CC)C(=O)c1ccc2c(c1)c1c(n2CCCNc2nc(OC)cc(OC)n2)CCCC1` yielded an IC50 in the data set on Hepatitis C virus of 50 nM. For the same compound, the Stability result with Plasma [8] is “Stable”. Consider `COC(=O)c1ccc2c(c1)c1c(n2CCCNc2nc(OC)cc(OC)n2)CCCC1`, for which the inhibition entry in [1] is “Active”. Further, half-maximal inhibition with Hepatitis C virus (IC50) was put at 1.5 nM. Besides, in the data set with Plasma [9], the Drug metabolism result is listed as “Active”.

On to `COc1cc(OC)nc(NCCCn2c3c(c4cc(C(=O)OC(C)C)ccc42)CCCC3)n1`, for which the inhibition result in data set [1] is “Active”. The compound further showed an IC50 with Hepatitis C virus of 10 nM. In [2], this compound came in with an AUC of 896 ng·h/mL. This compound registered a Cmax in data set [3] of 547 ng/mL. For the same compound, in data set [4], the half-life was 74.4 min. In data set [5], the Vd was determined as 17.6 L/kg. Also, in data set [6], the clearance was 71.8 mL/min/kg. In addition, the bioavailability in data set [7] worked out at 19%. For the same compound, in the data set with Plasma [8], the Stability result is given as “Stable”.

In turn, `COC(=O)c1ccc2c(c1)c1c(n2CCCNS(=O)(=O)C(C)C)CCCC1` yielded a 50% inhibitory concentration (IC50) in the data set with Hepatitis C virus of 50 nM. On the same count and under the same terms, in the case of `CCc1cc(CC)nc(OCCCn2c3c(c4cc(C(=O)OC)ccc42)CCCC3)n1` it was 1.5 nM; in that of `COC(=O)c1ccc2c(c1)c1c(n2CCCS(=O)(=O)c2ccccc2)CCCC1`, 50 nM.
